Assay results reported in paper PMC11962429, “Unraveling human transferrin-tryptamine interactions: a computational and biophysical approach to Alzheimer’s disease therapeutics” (Frontiers in Pharmacology, 2025).

Biological target: T1, Human transferrin (Htf) (Homo sapiens, UniProt P02787)
T1 construct: gene TF; single-chain glycoprotein of 679 amino acids (mature plasma protein)
Assay: intrinsic fluorescence quenching, modified Stern-Volmer
Type: binding
Details: 5 μM protein, sodium phosphate (PBS) buffer, excitation 280 nm, emission 300-400 nm, ligand 1-10 μM from DMSO stock; pH and temperature not given

T1 sequence (P02787 20-698): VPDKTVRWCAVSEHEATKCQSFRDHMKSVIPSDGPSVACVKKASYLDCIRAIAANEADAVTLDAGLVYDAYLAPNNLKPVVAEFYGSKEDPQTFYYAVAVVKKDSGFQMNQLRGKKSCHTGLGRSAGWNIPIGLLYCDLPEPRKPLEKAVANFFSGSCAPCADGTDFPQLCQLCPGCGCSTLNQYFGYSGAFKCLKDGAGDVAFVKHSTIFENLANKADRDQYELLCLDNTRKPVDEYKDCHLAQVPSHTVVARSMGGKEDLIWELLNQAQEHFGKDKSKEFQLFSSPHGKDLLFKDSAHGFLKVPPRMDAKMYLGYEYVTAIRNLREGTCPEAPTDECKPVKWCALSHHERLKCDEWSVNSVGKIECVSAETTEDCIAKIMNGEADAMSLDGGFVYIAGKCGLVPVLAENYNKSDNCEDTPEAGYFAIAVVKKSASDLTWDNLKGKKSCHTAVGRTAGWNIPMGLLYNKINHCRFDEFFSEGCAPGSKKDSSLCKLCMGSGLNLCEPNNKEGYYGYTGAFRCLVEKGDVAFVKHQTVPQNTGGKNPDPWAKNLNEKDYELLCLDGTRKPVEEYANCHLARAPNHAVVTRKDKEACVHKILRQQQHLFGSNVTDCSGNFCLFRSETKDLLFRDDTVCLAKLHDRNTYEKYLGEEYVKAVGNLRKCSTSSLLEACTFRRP

Compound: NCCc1c[nH]c2ccccc12 [Tryptamine]
- K: 480000 M⁻¹
